Test results: ChEMBL document CHEMBL3217456 (Medchemcomm, 2014)
Activity calls are given as the source filed them. No cut-off for these calls is given here.

Tests used:
[1] = target: T1, Histamine H3 receptor (Homo sapiens, UniProt Q9Y5N1); test: Antagonist activity at human recombinant histamine H3 receptor expressed in Sf9 cells coexpressing Galphai2,Gbeta1gamma2 and RGS4 assessed as inhibition of histamine-induced […] hydrolysis preincubated for 2 mins before [gamma32P]GTP addition measured after 20 mins by steady-state GTPase activity assay; assay type: functional
T1 sequence (Q9Y5N1 whole entry, the tested form may be a part): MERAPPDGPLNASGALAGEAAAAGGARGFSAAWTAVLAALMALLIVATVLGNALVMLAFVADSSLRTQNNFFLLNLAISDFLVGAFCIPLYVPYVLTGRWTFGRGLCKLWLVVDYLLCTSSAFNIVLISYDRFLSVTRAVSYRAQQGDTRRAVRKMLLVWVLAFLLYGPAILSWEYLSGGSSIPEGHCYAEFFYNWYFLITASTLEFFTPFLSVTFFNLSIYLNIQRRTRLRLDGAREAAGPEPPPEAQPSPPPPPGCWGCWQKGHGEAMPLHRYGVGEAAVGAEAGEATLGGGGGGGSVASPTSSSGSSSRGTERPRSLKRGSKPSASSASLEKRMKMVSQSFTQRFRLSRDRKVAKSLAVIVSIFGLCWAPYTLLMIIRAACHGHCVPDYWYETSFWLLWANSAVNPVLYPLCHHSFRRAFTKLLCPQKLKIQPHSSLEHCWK

[2] = target: T2, Histamine H2 receptor (Homo sapiens, UniProt P25021); test: Intrinsic activity at human recombinant histamine H2 receptor-Gsalphas fusion protein expressed in Sf9 cells preincubated for 2 mins before [gamma32P]GTP addition measured after 20 mins by steady-state GTPase activity assay relative to histamine
T2 sequence (P25021 whole entry, the tested form may be a part): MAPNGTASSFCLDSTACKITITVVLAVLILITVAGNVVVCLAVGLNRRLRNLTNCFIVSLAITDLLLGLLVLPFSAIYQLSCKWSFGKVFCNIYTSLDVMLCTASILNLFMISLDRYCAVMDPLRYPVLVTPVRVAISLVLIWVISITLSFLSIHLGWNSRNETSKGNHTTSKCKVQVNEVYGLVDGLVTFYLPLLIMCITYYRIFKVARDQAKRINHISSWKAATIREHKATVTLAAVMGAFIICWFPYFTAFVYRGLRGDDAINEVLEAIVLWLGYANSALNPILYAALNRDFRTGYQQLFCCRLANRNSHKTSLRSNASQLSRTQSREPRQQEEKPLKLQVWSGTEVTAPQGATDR

[3] = target: T3, Histamine H4 receptor (Homo sapiens, UniProt Q9H3N8); test: Intrinsic activity at human recombinant histamine H4 receptor-RGS19 fusion protein expressed in Sf9 cells coexpressing Galphai2,Gbeta1gamma2 preincubated for 2 mins before [gamma32P]GTP addition measured after 20 mins by steady-state GTPase activity assay relative to histamine
T3 sequence (Q9H3N8 whole entry, the tested form may be a part): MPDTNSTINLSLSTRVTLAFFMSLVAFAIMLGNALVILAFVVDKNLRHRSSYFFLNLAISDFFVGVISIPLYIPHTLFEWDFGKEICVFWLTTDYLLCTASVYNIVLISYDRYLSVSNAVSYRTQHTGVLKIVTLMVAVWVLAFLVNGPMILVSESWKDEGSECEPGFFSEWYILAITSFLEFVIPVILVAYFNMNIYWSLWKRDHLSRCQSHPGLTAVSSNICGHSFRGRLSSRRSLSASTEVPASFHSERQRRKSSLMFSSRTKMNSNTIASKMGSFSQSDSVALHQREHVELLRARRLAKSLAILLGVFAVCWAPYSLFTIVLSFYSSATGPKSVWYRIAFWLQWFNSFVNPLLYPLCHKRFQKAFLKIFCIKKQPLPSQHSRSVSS

[4] = target: T3, Histamine H4 receptor; test: Antagonist activity at human recombinant histamine H4 receptor-RGS19 fusion protein expressed in Sf9 cells coexpressing Galphai2,Gbeta1gamma2 assessed as inhibition of histamine-induced […] hydrolysis preincubated for 2 mins before [gamma32P]GTP addition measured after 20 mins by steady-state GTPase activity assay; assay type: functional
[5] = target: T2, Histamine H2 receptor; test: Antagonist activity at human recombinant histamine H2 receptor-Gsalphas fusion protein expressed in Sf9 cells assessed as inhibition of histamine-induced […] hydrolysis preincubated for 2 mins before [gamma32P]GTP addition measured after 20 mins by steady-state GTPase activity assay; assay type: functional
[6] = target: T1, Histamine H3 receptor; test: Intrinsic activity at human recombinant histamine H3 receptor expressed in Sf9 cells coexpressing Galphai2,Gbeta1gamma2 and RGS4 preincubated for 2 mins before [gamma32P]GTP addition measured after 20 mins by steady-state GTPase activity assay relative to histamine
[7] = target: Histamine H1 receptor (Homo sapiens) (UniProt P35367); test: Intrinsic activity at human recombinant histamine H1 receptor expressed in Sf9 cells coexpressing RGS4 preincubated for 2 mins before [gamma32P]GTP addition measured after 20 mins by steady-state GTPase activity assay relative to histamine
Histamine H1 receptor (Homo sapiens), sequence (P35367 whole entry, the tested form may be a part): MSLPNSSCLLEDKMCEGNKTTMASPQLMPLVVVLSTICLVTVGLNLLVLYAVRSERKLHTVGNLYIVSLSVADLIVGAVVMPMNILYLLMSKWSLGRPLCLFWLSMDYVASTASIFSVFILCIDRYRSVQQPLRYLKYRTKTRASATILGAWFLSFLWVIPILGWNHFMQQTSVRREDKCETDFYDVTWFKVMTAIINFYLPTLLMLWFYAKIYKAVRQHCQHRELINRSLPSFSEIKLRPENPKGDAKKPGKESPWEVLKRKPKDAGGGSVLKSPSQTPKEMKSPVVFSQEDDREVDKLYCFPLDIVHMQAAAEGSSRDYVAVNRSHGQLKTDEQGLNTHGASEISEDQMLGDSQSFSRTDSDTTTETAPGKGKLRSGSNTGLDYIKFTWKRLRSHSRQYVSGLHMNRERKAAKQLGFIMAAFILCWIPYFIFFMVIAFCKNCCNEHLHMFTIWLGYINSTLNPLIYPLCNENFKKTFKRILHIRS

[8] = target: Histamine H1 receptor (Cavia porcellus, UniProt P31389); test: Antagonist activity at guinea pig ileum histamine H1 receptor assessed as inhibition of histamine-induced response after 10 to 15 mins; assay type: tissue-based; settings: read-out: pA2 (converted)
Histamine H1 receptor, sequence (P31389 whole entry): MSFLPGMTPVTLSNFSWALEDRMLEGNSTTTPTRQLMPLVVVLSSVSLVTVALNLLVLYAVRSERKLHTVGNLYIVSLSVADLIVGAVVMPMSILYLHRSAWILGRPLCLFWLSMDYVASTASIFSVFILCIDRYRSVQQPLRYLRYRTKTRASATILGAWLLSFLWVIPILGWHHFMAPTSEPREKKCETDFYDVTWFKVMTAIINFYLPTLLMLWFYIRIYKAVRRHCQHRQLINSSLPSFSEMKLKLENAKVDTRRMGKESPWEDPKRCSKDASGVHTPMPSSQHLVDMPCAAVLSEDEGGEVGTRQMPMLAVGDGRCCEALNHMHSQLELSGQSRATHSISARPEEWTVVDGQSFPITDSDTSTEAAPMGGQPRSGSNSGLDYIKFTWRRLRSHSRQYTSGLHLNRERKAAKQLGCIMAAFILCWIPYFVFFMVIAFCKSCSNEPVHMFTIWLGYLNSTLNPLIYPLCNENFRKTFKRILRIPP

[9] = target: Histamine H2 receptor (Cavia porcellus) (UniProt P47747); test: Agonist activity at guinea pig histamine H2 receptor assessed as potentiation of histamine-induced response after 30 mins relative to histamine
Histamine H2 receptor (Cavia porcellus), sequence (P47747 whole entry): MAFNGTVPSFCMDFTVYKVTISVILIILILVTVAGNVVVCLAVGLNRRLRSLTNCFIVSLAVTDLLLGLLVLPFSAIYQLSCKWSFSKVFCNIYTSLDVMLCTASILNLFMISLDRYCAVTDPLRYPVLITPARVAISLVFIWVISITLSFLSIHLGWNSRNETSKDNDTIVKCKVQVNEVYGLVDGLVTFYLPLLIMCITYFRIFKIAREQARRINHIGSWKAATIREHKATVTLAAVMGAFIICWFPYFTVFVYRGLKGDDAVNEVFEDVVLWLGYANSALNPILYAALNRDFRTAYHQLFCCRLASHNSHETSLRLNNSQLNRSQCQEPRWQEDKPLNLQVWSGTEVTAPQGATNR

[10] = target: T4, Histamine H2 receptor (Cavia porcellus, UniProt P47747); test: Agonist activity at guinea pig atrium histamine H2 receptor assessed as potentiation of histamine-induced response after 30 mins; parameters: species or system Cardiac atrium
T4 sequence (P47747 whole entry): as above

[11] = target: Histamine H1 receptor (Homo sapiens) (UniProt P35367); test: Antagonist activity at human recombinant histamine H1 receptor expressed in Sf9 cells coexpressing RGS4 assessed as inhibition of histamine-induced […] hydrolysis preincubated for 2 mins before [gamma32P]GTP addition measured after 20 mins by steady-state GTPase activity assay; assay type: functional
[12] = target: T2, Histamine H2 receptor; test: Agonist activity at human recombinant histamine H2 receptor-Gsalphas fusion protein expressed in Sf9 cells assessed as [35S]GTPgammaS binding after 90 mins by liquid scintillation counting; assay type: functional
[13] = target: T3, Histamine H4 receptor; test: Antagonist activity at human recombinant histamine H4 receptor-RGS19 fusion protein expressed in Sf9 cells coexpressing Galphai2,Gbeta1gamma2 assessed as inhibition of histamine-induced [35S]GTPgammaS binding after 90 mins by liquid scintillation counting; assay type: functional
[14] = target: T1, Histamine H3 receptor; test: Intrinsic activity at human recombinant histamine H3 receptor expressed in Sf9 cells coexpressing Galphai2,Gbeta1gamma2 and RGS4 assessed as [35S]GTPgammaS binding at 10 uM after 90 mins by liquid scintillation counting relative to histamine; assay type: functional
[15] = target: Histamine H1 receptor (Homo sapiens) (UniProt P35367); settings: Sf9
[16] = target: T1, Histamine H3 receptor; test: Antagonist activity at human recombinant histamine H3 receptor expressed in Sf9 cells coexpressing Galphai2,Gbeta1gamma2 and RGS4 assessed as inhibition of histamine-induced [35S]GTPgammaS binding after 90 mins by liquid scintillation counting; assay type: functional
[17] = target: T3, Histamine H4 receptor; test: Intrinsic activity at human recombinant histamine H4 receptor-RGS19 fusion protein expressed in Sf9 cells coexpressing Galphai2,Gbeta1gamma2 assessed as [35S]GTPgammaS binding at 10 uM after 90 mins by liquid scintillation counting relative to histamine; assay type: functional
[18] = target: T1, Histamine H3 receptor; test: Agonist activity at human recombinant histamine H3 receptor expressed in Sf9 cells coexpressing Galphai2,Gbeta1gamma2 and RGS4 assessed as [35S]GTPgammaS binding after 90 mins by liquid scintillation counting; assay type: functional
[19] = target: T3, Histamine H4 receptor; test: Agonist activity at human recombinant histamine H4 receptor-RGS19 fusion protein expressed in Sf9 cells coexpressing Galphai2,Gbeta1gamma2 assessed as [35S]GTPgammaS binding after 90 mins by liquid scintillation counting; assay type: functional
[20] = target: T3, Histamine H4 receptor; test: Agonist activity at human recombinant histamine H4 receptor-RGS19 fusion protein expressed in Sf9 cells coexpressing Galphai2,Gbeta1gamma2 preincubated for 2 mins before [gamma32P]GTP addition measured after 20 mins by steady-state GTPase activity assay
[21] = target: Histamine H2 receptor (Cavia porcellus) (UniProt P47747); test: Antagonist activity at guinea pig histamine H2 receptor assessed as reduction of histamine-induced maximal response after 30 mins
[22] = target: T4, Histamine H2 receptor; test: Antagonist activity at guinea pig histamine H2 receptor assessed as inhibition of histamine-induced response after 30 mins; settings: read-out: pA2 (converted)
[23] = target: T2, Histamine H2 receptor; test: Antagonist activity at human recombinant histamine H2 receptor-Gsalphas fusion protein expressed in Sf9 cells assessed as inhibition of histamine-induced [35S]GTPgammaS binding after 90 mins by liquid scintillation counting; assay type: functional
[24] = target: T2, Histamine H2 receptor; test: Intrinsic activity at human recombinant histamine H2 receptor-Gsalphas fusion protein expressed in Sf9 cells assessed as [35S]GTPgammaS binding at 10 uM after 90 mins by liquid scintillation counting relative to histamine; assay type: functional

SMILES | pKb [1] | Intrinsic activity [2] | pKb [5] | Intrinsic activity [6] | Intrinsic activity [7] | pKb [11] | pKb [13] | Intrinsic activity [14] | pKb [16] | Intrinsic activity [17] | also measured
CC(CC(=O)/N=C(\N)NCCCc1ccc(CN(C)C)o1)c1cccs1 (centres undefined) | 5.77 | -0.12 | 6.51 | -0.73 | – | – | – | – | – | – | Intrinsic activity [3]: -0.14; pKb [4]: < 5
N/C(=N\C(=O)CC(c1ccccc1)c1ccccc1)NCCCc1cn[nH]c1 | < 5 | 0.08 | 5.42 | -0.02 | 0.06 | 5.06 | – | – | – | – | Kb [8]: 2570 nM; Efficacy [9]: 41%; pKb [4]: < 5; EC50 [10]: 363 nM
N/C(=N\C(=O)CC(c1ccccc1)c1ccccc1)NCCCn1ccnc1 | < 5 | -0.07 | 5.82 | -0.07 | 0.01 | < 5 | – | – | – | – | Kb [8]: 2340 nM; pKb [4]: < 5
CN/C(=N\C#N)NCCNc1nccc(N)n1 | – | – | – | – | – | – | < 5 | -0.16 | < 5 | -0.11 | pEC50 [12]: inactive; pEC50 [15]: inactive
CN/C(=N\C#N)NCCCNc1ccccn1 | – | – | – | – | – | – | < 5 | -0.03 | < 5 | -0.13 | pEC50 [12]: inactive; pEC50 [15]: inactive
CC(CC(=O)/N=C(\N)NCCCc1c[nH]cn1)c1ccccc1 (centres undefined) | – | 0.87 | – | 0.24 | – | – | – | – | – | – | Efficacy [9]: 99%; Intrinsic activity [3]: 0.84
CN/C(=N/C#N)NCCCCc1cnn[nH]1 | – | – | – | – | – | – | – | – | – | – | pEC50 [12]: inactive; pEC50 [15]: inactive; pEC50 [18]: inactive; pEC50 [19]: inactive
CN/C(=N\C#N)NCCCNc1nccc(N)n1 | – | – | – | – | 0.03 | < 5 | – | -0.24 | < 5 | – | pEC50 [12]: inactive; pEC50 [19]: inactive
CC(CC(=O)/N=C(\N)NCCCc1ncc[nH]1)c1cccs1 (centres undefined) | 5.35 | 0.04 | 5.26 | -0.46 | – | – | – | – | – | – | Intrinsic activity [3]: 0.5; EC50 [20]: 776 nM
N/C(=N\C(=O)CC(c1ccccc1)c1ccccc1)NCCCc1ncc[nH]1 | 5.47 | -0.04 | 6.13 | -0.33 | 0.04 | 5.07 | – | – | – | – | Intrinsic activity [3]: -0.08; pKb [4]: 5.85
Cc1nc(N)sc1CCCNC(=N)NC(=O)CC(C)c1ccccc1 (centres undefined) | – | – | – | – | – | – | – | – | – | – | pD'2 [21]: < 4.5; Kb [22]: > 31600 nM
CC(CC(=O)/N=C(\N)NCCCc1cccnc1)c1ccccc1 (centres undefined) | < 5 | -0.11 | 5.27 | -0.01 | – | < 5 | – | – | – | – | pD'2 [21]: 4.22; Kb [22]: > 31600 nM; pKb [4]: < 5
CN(C)Cc1ccc(CCCN/C(N)=N/C(=O)CC(c2ccccc2)c2ccccc2)o1 | 5.89 | -0.16 | 7.03 | -0.65 | -0.02 | 5.11 | – | – | – | – | Intrinsic activity [3]: -0.16; pKb [4]: < 5
CN/C(=N\C#N)NCCCCNc1ccccn1 | – | – | – | – | 0.03 | < 5 | < 5 | -0.1 | < 5 | -0.11 | pEC50 [12]: inactive
S=C(NC1CCCCC1)N1CCC(c2cnc[nH]2)CC1 | – | – | – | – | – | – | – | – | – | – | Intrinsic activity [3]: -0.95
N#C/N=C(/NCCCCNc1ccccn1)NCCSc1ccccc1 | – | – | – | – | -0.01 | < 5 | < 5 | -0.36 | < 5 | -0.34 | pKb [23]: < 5; Intrinsic activity [24]: -0.13
CN/C(=N/C#N)NCCCCc1c[nH]c(C)n1 | – | – | – | – | 0.01 | < 5 | < 5 | -0.13 | < 5 | -0.23 | pKb [23]: < 5; Intrinsic activity [24]: 0.04
N#C/N=C(/NCCCNc1ccccn1)NCCSc1ccccc1 | – | – | – | – | 0.02 | < 5 | < 5 | -0.21 | < 5 | -0.1 | pKb [23]: < 5; Intrinsic activity [24]: -0.12
Cc1nc(CCCCN/C(=N\C#N)NCCSc2ccccc2)c[nH]1 | – | – | – | – | -0.01 | < 5.3 | 6.21 | -0.47 | < 5 | -0.24 | EC50 [12]: 16200 nM; Intrinsic activity [24]: -0.05
CN/C(=N\C#N)NCCCCNc1nc(N)n[nH]1 | – | – | – | – | – | – | – | – | – | – | pEC50 [12]: inactive; pEC50 [15]: inactive; pEC50 [18]: inactive; pEC50 [19]: inactive
N#C/N=C(/NCCCNc1nccc(N)n1)NCCSc1ccccc1 | – | – | – | – | 0.01 | < 5 | < 5 | -0.71 | 5.14 | -0.09 | pKb [23]: < 5; Intrinsic activity [24]: -0.11
